Results taken from the NIST ThermoML archive (doi:10.1021/je500881x).
± gives the expanded uncertainty stated by the source.

Assay: refractive index (Na D-line) (dimensionless); wn = mass fraction of the nth substance listed
Conditions: 288.15 K, 101 kPa, Liquid, Standard Abbe refractometry

Compound | refractive index (w1 = 0.5794) | refractive index (w1 = 0.4704)
[Br-].[Br-].[Ca+2] [calcium bromide] + O | 1.4892 ± 0.0004 | –
[Br-].[Na+] [sodium bromide] + O | – | 1.4196 ± 0.0004
